Results: patent US20230135152A1 (ACURASTEM INCORPORATED, priority 2020, published 2023)

What was measured:
[1] = molecular target: T1, PIKFYVE (Homo sapiens, UniProt Q9Y2I7); experiment: PIKFYVE assay (luciferase ADP-Glo kinase assay, Promega); format: biochemical; conditions: Table 2
Summary of the method: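 Kinase activity measured with a luciferase-based ADP-Glo read-out, which quantifies ADP formed by the enzyme.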

[2] = molecular target: T1, PIKFYVE; experiment: Cell-based Pikfyve inhibition activity assay (EEA1 staining, mean vesicle size in BJ fibroblast cells); conditions: Table 4, 4 hours treatment, 3 μM Apilimod = 100% inhibition
Procedure: BJ fibroblast cells were obtained from American Type Cell Culture (ATCC, CRL-2522). The cells were maintained in DMEM (Genesee Scientific, 25-500) supplemented with 10% fetal bovine serum (Genesee Scientific, 25-514) and 1% penicillin-streptomycin (Genesee Scientific, 25-512) at 37° C. in the atmosphere 5% CO2. BJ fibroblasts were plated into black flat clear bottom 96-well plates (Grenier, 655090) at a density of 3×10^3 per well and were allowed to attach in culture for 8-10 hours before drug treatment. Drugs were tested at eleven doses separated by 3 fold from 0.03 nM to 3000 nM in triplicates for 4 hours at 37° C. After 4 hours, treatment media was aspirated and replaced with 4% Paraformaldehyde (Electron Microscopy Science, 15714-S) and cells were fixed at room temperature for 5 minutes. 4% PFA in wells were then discarded and replaced with a blocking buffer consisting of 1×PBS with 0.1% Tween (Sigma-Aldrich, P1754-500), 5% Donkey Serum (Jackson ImmunoResearch, 017-000-121), and 1% BSA (Caisson Labs, B005-50GM) and incubated at room temperature for 30 minutes. Blocking buffer was then discarded and replaced with a primary EEA1 antibody (Fisher Scientific, BD610457) in a 1:1000 dilution and incubated at 4° C. overnight. Following overnight incubation, plates were washed with 1×PBS three times and incubated with secondary antibody Donkey anti-Mouse IgG, Alexa Fluor 555 (Invitrogen, A31570) (1:1000 dilution) for 1 hour at room temperature in the dark. Subsequently cell plates were washed with 1×PBS three times and can be stored at 4° C. if not being proceeding with imaging procedure.
Images were acquired with 20× objective (ImageXpress MicroConfocal, Molecular Devices) creating z-series of 5 planes (5 steps, […]), 16 tiles per well. Images were then analyzed using a custom CellProfiler protocol to obtain mean vesicle size. The mean vesicle size from 16 images was used as the output for each well. The mean vesicle size from 0.5% DMSO treated condition was considered as having no Pikfyve inhibition activity and the 3 μM Apilimod treated condition was considered as having 100% inhibition activity. The mean vesicle size was converted to % inhibition activity and the data was fitted to a dose-response curve using log(inhibitor) vs normalized response-variable slope using GraphPad Prism.

T1 sequence (Q9Y2I7 whole entry): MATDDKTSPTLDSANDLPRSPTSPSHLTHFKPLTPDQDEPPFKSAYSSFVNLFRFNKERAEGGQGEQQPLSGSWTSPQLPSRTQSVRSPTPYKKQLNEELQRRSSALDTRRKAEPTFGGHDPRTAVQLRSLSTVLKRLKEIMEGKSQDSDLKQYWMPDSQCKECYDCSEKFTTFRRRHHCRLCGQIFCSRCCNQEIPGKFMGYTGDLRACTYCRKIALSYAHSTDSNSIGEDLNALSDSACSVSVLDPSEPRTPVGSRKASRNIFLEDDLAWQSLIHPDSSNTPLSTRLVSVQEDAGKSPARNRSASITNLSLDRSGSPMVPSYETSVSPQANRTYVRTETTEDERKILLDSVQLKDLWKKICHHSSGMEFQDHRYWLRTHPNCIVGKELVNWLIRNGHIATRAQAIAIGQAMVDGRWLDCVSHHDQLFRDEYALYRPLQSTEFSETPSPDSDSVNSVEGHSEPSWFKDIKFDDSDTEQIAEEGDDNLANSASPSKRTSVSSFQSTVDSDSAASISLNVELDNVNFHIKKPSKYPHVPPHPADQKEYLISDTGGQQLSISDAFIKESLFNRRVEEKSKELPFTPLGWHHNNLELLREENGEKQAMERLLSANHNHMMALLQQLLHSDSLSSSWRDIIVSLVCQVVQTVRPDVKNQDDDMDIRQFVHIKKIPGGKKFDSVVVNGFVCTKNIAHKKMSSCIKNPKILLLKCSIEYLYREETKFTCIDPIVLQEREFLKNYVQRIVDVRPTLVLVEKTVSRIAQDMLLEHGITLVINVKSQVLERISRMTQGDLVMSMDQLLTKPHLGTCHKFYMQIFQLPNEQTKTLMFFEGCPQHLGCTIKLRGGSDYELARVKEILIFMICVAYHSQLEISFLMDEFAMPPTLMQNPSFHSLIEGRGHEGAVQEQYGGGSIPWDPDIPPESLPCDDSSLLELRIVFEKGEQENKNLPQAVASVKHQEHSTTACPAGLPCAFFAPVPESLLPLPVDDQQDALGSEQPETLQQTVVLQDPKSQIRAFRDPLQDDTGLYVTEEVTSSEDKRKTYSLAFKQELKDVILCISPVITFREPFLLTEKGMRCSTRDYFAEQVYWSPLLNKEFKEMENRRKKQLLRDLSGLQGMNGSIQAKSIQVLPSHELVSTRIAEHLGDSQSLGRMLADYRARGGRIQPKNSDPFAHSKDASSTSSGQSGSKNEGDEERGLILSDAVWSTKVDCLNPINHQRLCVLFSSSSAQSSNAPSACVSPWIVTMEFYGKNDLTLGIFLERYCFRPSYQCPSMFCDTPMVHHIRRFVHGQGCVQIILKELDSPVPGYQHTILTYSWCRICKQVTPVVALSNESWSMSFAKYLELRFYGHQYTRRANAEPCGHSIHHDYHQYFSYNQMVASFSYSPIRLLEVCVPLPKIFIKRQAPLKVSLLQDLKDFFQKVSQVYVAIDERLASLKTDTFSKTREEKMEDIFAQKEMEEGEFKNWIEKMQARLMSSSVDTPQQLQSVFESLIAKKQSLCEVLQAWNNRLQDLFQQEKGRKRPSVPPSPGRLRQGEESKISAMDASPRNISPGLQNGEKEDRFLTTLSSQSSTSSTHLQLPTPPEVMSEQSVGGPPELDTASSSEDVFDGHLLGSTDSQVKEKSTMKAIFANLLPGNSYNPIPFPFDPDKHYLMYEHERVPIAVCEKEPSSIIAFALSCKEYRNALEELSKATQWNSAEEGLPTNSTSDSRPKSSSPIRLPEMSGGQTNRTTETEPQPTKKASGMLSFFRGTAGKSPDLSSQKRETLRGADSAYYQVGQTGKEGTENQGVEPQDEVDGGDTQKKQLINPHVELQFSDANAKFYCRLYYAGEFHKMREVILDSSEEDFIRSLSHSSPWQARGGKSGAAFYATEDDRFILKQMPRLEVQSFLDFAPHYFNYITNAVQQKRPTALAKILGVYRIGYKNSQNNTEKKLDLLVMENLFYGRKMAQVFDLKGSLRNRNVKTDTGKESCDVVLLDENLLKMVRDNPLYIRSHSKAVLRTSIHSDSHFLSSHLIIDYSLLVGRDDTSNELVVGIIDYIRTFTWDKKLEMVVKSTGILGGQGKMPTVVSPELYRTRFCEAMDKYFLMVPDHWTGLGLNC

SMILES | IC50 [1] [nM] | EC50 [2] [nM]
Cc1cccc(-c2ccn(-c3cc(N4CCOCC4)nc(OCCc4ccnn4C)n3)n2)c1 [Compound 55, 4-(2-(2-(1-methyl-1H-pyrazol-5-yl)ethoxy)-6-(3-(m-tolyl)-1H-pyrazol-1-yl)pyrimidin-4-yl)morpholine] | < 5 | 20 to 100
Cc1cccc(-c2ccn(-c3cc(N4CCOCC4)nc(OCCc4cnn(C)c4)n3)n2)c1 [Compound 56, 4-(2-(2-(1-methyl-1H-pyrazol-4-yl)ethoxy)-6-(3-(m-tolyl)-1H-pyrazol-1-yl)pyrimidin-4-yl)morpholine] | < 5 | < 20
COc1nc(N2CCOCC2)cc(-n2ccc(-c3cccc(C)c3)n2)n1 [Compound 59, 4-(2-methoxy-6-(3-(m-tolyl)-1H-pyrazol-1-yl)pyrimidin-4-yl)morpholine] | 5 to 100 | 20 to 100
Cc1cccc(-c2ccn(-c3cc(N4CCOCC4)ncn3)n2)c1 [Compound 60, 4-(6-(3-(m-tolyl)-1H-pyrazol-1-yl)pyrimidin-4-yl)morpholine] | 101 to 1000 | 500 to 5000
Cc1cccc(-c2ccn(-c3cc(N4CCOCC4)nc(N4CCCC4=O)n3)n2)c1 [Compound 61, 1-(4-morpholino-6-(3-(m-tolyl)-1H-pyrazol-1-yl)pyrimidin-2-yl)pyrrolidin-2-one] | 5 to 100 | 100 to 500
Cn1cc(CCOc2nc(N3CCOCC3)cc(-n3ccc(OCc4ccccc4)n3)n2)cn1 [Compound 62, 4-(6-(3-(benzyloxy)-1H-pyrazol-1-yl)-2-(2-(1-methyl-1H-pyrazol-4-yl)ethoxy)pyrimidin-4-yl)morpholine] | < 5 | 20 to 100
Cn1cc(CCOc2nc(N3CCOCC3)cc(-n3ccc(C(=O)Nc4ccccc4)n3)n2)cn1 [Compound 64, 1-(2-(2-(1-methyl-1H-pyrazol-4-yl)ethoxy)-6-morpholinopyrimidin-4-yl)-N-phenyl-1H-pyrazole-3-carboxamide] | < 5 | 20 to 100
CC(=O)Nc1nc(N2CCOCC2)cc(-n2ccc(-c3cccc(C)c3)n2)n1 [Compound 66, N-(4-morpholino-6-(3-(m-tolyl)-1H-pyrazol-1-yl)pyrimidin-2-yl)acetamide] | < 5 | 100 to 500
COC(Cc1ccnn1C)c1nc(N2CCOCC2)cc(-n2ccc(-c3ccccc3)n2)n1 (stereo not drawn) [Compound 68, 4-(2-(1-methoxy-2-(1-methyl-1H-pyrazol-5-yl)ethyl)-6-(3-phenyl-1H-pyrazol-1-yl)pyrimidin-4-yl)morpholine] | < 5 | 100 to 500
COCc1nc(N2CCOCC2)cc(-n2ccc(-c3ccccc3)n2)n1 [Compound 69] | 5 to 100 | 500 to 5000
COC(=O)c1ccn(-c2cc(N3CCOCC3)nc(OCCc3cnn(C)c3)n2)n1 [Compound 70] | 5 to 100 | > 5000
Cn1cc(CCOc2nc(N3CCOCC3)cc(-n3ccc(-c4cccnc4)n3)n2)cn1 [Compound 71, 4-(2-(2-(1-methyl-1H-pyrazol-4-yl)ethoxy)-6-(3-(pyridin-3-yl)-1H-pyrazol-1-yl)pyrimidin-4-yl)morpholine] | < 5 | 500 to 5000
COC(CC#N)c1nc(N2CCOCC2)cc(-n2ccc(-c3cccc(C)c3)n2)n1 (stereo not drawn) [Compound 72, 3-methoxy-3-(4-morpholino-6-(3-(m-tolyl)-1H-pyrazol-1-yl)pyrimidin-2-yl)propanenitrile] | < 5 | 100 to 500
Cc1cccc(-c2ccn(-c3cc(N4CCOCC4)nc(OCCc4cnn(CCN(C)C)c4)n3)n2)c1 [Compound 74, N,N-dimethyl-2-(4-(2-((4-morpholino-6-(3-(m-tolyl)-1H-pyrazol-1-yl)pyrimidin-2-yl)oxy)ethyl)-1H-pyrazol-1-yl)ethan-1-amine] | < 5 | 20 to 100
CN(C)Cc1cc(-c2ccccc2)nn1-c1cc(N2CCOCC2)nc(OCCc2cnn(C)c2)n1 [Compound 75, N,N-dimethyl-1-(1-(2-(2-(1-methyl-1H-pyrazol-4-yl)ethoxy)-6-morpholinopyrimidin-4-yl)-3-phenyl-1H-pyrazol-5-yl)methanamine] | 5 to 100 | 100 to 500
Cc1cccc(-c2ccn(-c3cc(N4CCOCC4)nc(C(O)CC#N)n3)n2)c1 (stereo not drawn) [Compound 76, 3-hydroxy-3-(4-morpholino-6-(3-(m-tolyl)-1H-pyrazol-1-yl)pyrimidin-2-yl)propanenitrile] | < 5 | 20 to 100
COCc1cc(-c2ccccc2)n(-c2cc(N3CCOCC3)nc(OCCc3cnn(C)c3)n2)n1 [Compound 77, 4-(6-(3-(methoxymethyl)-5-phenyl-1H-pyrazol-1-yl)-2-(2-(1-methyl-1H-pyrazol-4-yl)ethoxy)pyrimidin-4-yl)morpholine] | 5 to 100 | 500 to 5000
COC(c1ccccc1)c1nc(N2CCOCC2)cc(-n2ccc(-c3ccccc3)n2)n1 (stereo not drawn) [Compound 78, 4-(2-(methoxy(phenyl)methyl)-6-(3-phenyl-1H-pyrazol-1-yl)pyrimidin-4-yl)morpholine] | 5 to 100 | 500 to 5000
Cn1cc(C(O)CCc2nc(N3CCOCC3)cc(-n3ccc(-c4ccccc4)n3)n2)cn1 (stereo not drawn) [Compound 79, 1-(1-methyl-1H-pyrazol-4-yl)-3-(4-morpholino-6-(3-phenyl-1H-pyrazol-1-yl)pyrimidin-2-yl)propan-1-ol] | < 5 | 100 to 500
Cn1cc(C(O)C#Cc2nc(N3CCOCC3)cc(-n3ccc(-c4ccccc4)n3)n2)cn1 (stereo not drawn) [Compound 80, 1-(1-methyl-1H-pyrazol-4-yl)-3-(4-morpholino-6-(3-phenyl-1H-pyrazol-1-yl)pyrimidin-2-yl)prop-2-yn-1-ol] | < 5 | 20 to 100
Cc1cccc(-c2ccn(-c3cc(N4CCOCC4)nc(C)n3)n2)c1 [Compound 81, 4-(2-methyl-6-(3-(m-tolyl)-1H-pyrazol-1-yl)pyrimidin-4-yl)morpholine] | < 5 | 100 to 500
Cc1cccc(-c2ccn(-c3cc(N4CCOCC4)nc(C(F)(F)F)n3)n2)c1 [Compound 82] | 5 to 100 | 500 to 5000
COc1nc(N2CCOCC2)c(C)c(-n2ccc(-c3cccc(C)c3)n2)n1 [Compound 83, 4-(2-methoxy-5-methyl-6-(3-(m-tolyl)-1H-pyrazol-1-yl)pyrimidin-4-yl)morpholine] | 101 to 1000 | > 5000
CNc1nc(N2CCOCC2)cc(-n2nc(-c3ccccc3)cc2C)n1 [Compound 85] | 101 to 1000 | 500 to 5000
Cc1cccc(-c2cc(CN(C)C)n(-c3cc(N4CCOCC4)nc(OCCc4cnn(C)c4)n3)n2)c1 [Compound 86, N,N-dimethyl-1-(1-(2-(2-(1-methyl-1H-pyrazol-4-yl)ethoxy)-6-morpholinopyrimidin-4-yl)-3-(m-tolyl)-1H-pyrazol-5-yl)methanamine] | < 5 | 20 to 100
COc1cc(N2CCOCC2)nc(-n2ccc(-c3cccc(C)c3)n2)n1 [Compound 87, 4-(6-methoxy-2-(3-(m-tolyl)-1H-pyrazol-1-yl)pyrimidin-4-yl)morpholine] | 101 to 1000 | 100 to 500
CC(=O)c1nc(N2CCOCC2)cc(-n2ccc(-c3cccc(C)c3)n2)n1 [Compound 88, 1-(4-morpholino-6-(3-(m-tolyl)-1H-pyrazol-1-yl)pyrimidin-2-yl)ethan-1-one] | < 5 | 100 to 500
